Assays:
Test in all cases: KINOMEscan competition binding
Conditions in all cases: compound 10.0 µM
[1] = tested on: ABL1 (human), P00519 [M351T]
ACVR1 (human) = ACVR1 (human) (UniProt Q04771)
CDK19 (human) = CDK19 (human) (UniProt Q9BWU1)
CDK7 (human) = CDK7 (human) (UniProt P50613)
CSNK1E (human) = CSNK1E (human) (UniProt P49674)
CSNK2A1 (human) = CSNK2A1 (human) (UniProt P68400)
[2] = tested on: EGFR (human), P00533 [T790M/L858R]
EIF2AK1 (human) = EIF2AK1 (human) (UniProt Q9BQI3)
EPHA1 (human) = EPHA1 (human) (UniProt P21709)
EPHA8 (human) = EPHA8 (human) (UniProt P29322)
FGR (human) = FGR (human) (UniProt P09769)
Sequence of FGR (human) (P09769 whole entry, looked up): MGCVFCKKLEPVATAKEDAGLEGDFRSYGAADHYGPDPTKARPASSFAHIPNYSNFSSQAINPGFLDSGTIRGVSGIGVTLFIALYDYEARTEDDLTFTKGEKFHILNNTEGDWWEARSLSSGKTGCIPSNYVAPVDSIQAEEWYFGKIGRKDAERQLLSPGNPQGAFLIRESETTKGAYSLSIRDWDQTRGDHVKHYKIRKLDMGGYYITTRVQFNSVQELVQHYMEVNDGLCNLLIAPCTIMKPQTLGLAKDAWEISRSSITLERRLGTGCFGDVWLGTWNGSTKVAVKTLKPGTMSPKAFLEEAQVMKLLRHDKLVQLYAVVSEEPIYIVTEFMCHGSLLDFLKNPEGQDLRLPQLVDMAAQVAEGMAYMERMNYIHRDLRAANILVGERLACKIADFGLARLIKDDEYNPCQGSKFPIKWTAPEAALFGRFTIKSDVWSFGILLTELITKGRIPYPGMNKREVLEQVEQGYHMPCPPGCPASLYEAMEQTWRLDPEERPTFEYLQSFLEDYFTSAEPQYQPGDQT

FYN (human) = FYN (human) (UniProt P06241)
Sequence of FYN (human) (P06241 whole entry, looked up): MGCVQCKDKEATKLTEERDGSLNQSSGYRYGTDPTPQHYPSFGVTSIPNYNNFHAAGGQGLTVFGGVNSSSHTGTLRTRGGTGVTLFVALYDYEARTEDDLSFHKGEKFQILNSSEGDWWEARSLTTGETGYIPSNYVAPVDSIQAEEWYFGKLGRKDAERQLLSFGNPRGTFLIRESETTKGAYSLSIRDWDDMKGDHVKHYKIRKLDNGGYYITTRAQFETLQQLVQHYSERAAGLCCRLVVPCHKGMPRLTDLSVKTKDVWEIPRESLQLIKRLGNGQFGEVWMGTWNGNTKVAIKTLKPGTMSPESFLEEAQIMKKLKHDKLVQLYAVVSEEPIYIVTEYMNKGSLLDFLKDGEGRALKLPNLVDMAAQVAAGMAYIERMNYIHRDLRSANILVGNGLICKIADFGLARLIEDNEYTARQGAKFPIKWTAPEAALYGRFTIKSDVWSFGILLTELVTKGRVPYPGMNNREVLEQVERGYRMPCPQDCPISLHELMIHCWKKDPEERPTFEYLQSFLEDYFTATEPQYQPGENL

GSK3B (human) = GSK3B (human) (UniProt P49841)
[3] = tested on: KIT (human), P10721 [L576P]
MAP2K3 (human) = MAP2K3 (human) (UniProt P46734)
MAP3K1 (human) = MAP3K1 (human) (UniProt Q13233)
MAP3K3 (human) = MAP3K3 (human) (UniProt Q99759)
MAP3K5 (human) = MAP3K5 (human) (UniProt Q99683)
MAPK12 (human) = MAPK12 (human) (UniProt P53778)
MAPK15 (human) = MAPK15 (human) (UniProt Q8TD08)
Sequence of MAPK15 (human) (Q8TD08 whole entry, looked up): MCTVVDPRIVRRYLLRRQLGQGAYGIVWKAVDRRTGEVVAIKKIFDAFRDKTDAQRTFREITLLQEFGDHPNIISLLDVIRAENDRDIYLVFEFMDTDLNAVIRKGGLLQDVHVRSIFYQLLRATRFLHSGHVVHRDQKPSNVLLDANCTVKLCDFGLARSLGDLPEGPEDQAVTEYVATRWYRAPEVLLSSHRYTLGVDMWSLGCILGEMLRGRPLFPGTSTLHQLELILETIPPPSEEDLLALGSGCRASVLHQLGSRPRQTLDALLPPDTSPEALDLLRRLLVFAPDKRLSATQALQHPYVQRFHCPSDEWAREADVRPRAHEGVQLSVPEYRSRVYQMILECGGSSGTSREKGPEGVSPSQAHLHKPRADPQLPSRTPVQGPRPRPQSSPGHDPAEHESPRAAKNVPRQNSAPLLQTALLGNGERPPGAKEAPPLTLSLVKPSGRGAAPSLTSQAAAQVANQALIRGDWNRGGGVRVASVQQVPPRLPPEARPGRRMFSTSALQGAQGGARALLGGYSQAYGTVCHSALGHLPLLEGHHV

MAPK9 (human) = MAPK9 (human) (UniProt P45984)
MET (human) = MET (human) (UniProt P08581)
[4] = tested on: MET (human), P08581 [Y1235D]
NEK11 (human) = NEK11 (human) (UniProt Q8NG66)
Sequence of NEK11 (human) (Q8NG66 whole entry, looked up): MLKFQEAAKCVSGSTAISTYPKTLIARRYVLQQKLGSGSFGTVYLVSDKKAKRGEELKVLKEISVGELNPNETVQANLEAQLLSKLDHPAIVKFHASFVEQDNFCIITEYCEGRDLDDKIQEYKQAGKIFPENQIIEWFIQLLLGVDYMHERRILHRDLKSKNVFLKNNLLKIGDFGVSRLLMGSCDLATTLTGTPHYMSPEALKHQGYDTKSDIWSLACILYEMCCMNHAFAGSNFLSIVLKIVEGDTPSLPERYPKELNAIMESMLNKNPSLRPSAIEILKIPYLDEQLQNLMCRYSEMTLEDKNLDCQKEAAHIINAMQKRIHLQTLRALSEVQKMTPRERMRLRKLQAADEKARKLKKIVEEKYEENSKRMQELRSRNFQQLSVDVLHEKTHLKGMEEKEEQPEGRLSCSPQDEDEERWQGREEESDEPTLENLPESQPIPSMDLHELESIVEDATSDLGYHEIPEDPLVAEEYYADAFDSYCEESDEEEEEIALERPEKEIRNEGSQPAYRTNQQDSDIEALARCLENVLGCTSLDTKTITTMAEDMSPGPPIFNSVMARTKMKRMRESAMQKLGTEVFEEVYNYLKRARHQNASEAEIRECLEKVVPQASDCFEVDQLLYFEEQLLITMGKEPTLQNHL

NTRK2 (human) = NTRK2 (human) (UniProt Q16620)
PAK2 (human) = PAK2 (human) (UniProt Q13177)
PAK6 (human) = PAK6 (human) (UniProt Q9NQU5)
PIP5K1A (human) = PIP5K1A (human) (UniProt Q99755)
PKN1 (human) = PKN1 (human) (UniProt Q16512)
PLK1 (human) = PLK1 (human) (UniProt P53350)
PLK3 (human) = PLK3 (human) (UniProt Q9H4B4)
PRKCD (human) = PRKCD (human) (UniProt Q05655)
PRKD3 (human) = PRKD3 (human) (UniProt O94806)
[5] = tested on: RET (human), P07949 [M918T]
RIPK1 (human) = RIPK1 (human) (UniProt Q13546)
RPS6KA5 KD1 (human) = RPS6KA5 KD1 (human) (UniProt O75582)
SIK1 (human) = SIK1 (human) (UniProt P57059)
STK10 (human) = STK10 (human) (UniProt O94804)
Sequence of STK10 (human) (O94804 whole entry, looked up): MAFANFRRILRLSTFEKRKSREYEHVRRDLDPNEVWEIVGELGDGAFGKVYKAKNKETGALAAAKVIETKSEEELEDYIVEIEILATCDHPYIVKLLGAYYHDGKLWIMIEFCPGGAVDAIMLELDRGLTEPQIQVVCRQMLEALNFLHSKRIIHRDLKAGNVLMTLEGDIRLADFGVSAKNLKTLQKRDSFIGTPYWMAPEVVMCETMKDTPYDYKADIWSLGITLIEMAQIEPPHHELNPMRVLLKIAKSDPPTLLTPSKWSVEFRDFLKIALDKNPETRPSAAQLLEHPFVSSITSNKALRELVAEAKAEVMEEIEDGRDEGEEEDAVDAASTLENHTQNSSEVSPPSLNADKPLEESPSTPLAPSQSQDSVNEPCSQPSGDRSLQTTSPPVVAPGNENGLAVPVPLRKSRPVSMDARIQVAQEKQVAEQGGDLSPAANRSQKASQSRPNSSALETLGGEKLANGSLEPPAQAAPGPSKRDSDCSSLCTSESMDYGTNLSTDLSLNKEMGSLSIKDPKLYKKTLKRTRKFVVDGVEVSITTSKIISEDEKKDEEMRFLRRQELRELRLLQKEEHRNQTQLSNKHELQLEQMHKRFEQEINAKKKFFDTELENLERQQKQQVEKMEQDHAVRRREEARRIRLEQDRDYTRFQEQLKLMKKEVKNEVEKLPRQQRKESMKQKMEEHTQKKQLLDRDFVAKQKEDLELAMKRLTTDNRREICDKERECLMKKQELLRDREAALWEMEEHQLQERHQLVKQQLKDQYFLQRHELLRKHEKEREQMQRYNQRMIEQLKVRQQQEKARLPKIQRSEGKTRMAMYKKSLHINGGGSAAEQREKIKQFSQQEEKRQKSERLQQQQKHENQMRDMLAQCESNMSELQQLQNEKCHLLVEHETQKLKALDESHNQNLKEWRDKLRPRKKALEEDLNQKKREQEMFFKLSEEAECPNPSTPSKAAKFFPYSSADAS

STK16 (human) = STK16 (human) (UniProt O75716)
Sequence of STK16 (human) (O75716 whole entry, looked up): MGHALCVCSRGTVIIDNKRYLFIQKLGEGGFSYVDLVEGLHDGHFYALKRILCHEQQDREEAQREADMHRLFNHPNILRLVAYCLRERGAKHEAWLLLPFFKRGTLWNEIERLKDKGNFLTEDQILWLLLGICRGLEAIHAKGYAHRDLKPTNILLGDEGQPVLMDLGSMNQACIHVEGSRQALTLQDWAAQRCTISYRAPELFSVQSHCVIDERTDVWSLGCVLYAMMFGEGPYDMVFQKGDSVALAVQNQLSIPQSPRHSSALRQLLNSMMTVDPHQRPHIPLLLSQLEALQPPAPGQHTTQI

STK3 (human) = STK3 (human) (UniProt Q13188)
Sequence of STK3 (human) (Q13188 whole entry, looked up): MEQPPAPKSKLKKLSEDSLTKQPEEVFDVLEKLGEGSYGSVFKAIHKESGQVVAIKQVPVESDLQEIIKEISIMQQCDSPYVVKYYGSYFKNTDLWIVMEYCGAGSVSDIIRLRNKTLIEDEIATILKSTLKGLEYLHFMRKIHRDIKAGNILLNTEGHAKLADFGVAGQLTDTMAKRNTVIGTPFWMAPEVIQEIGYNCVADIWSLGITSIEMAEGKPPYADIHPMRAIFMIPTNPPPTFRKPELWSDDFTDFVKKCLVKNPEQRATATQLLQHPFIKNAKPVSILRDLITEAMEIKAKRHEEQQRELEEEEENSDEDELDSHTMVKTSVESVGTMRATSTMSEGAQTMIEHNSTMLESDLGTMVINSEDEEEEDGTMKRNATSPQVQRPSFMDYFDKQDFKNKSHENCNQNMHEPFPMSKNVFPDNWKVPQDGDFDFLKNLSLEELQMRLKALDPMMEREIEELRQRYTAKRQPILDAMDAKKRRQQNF

TEK (human) = TEK (human) (UniProt Q02763)
VRK2 (human) = VRK2 (human) (UniProt Q86Y07)

Sequence of CSNK1E (human) (P49674 whole entry, looked up): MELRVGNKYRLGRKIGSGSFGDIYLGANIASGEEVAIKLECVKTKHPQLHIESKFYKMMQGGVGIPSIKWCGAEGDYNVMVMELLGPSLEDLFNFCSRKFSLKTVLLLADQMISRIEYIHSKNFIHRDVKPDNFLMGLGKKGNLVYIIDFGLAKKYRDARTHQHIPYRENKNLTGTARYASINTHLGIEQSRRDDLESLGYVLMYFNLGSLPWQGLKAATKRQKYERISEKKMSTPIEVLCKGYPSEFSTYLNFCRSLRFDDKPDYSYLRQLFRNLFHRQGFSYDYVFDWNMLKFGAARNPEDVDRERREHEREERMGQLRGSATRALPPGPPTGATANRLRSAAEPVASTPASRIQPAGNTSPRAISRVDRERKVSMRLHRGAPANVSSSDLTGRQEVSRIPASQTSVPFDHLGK
Sequence of ACVR1 (human) (Q04771 whole entry, looked up): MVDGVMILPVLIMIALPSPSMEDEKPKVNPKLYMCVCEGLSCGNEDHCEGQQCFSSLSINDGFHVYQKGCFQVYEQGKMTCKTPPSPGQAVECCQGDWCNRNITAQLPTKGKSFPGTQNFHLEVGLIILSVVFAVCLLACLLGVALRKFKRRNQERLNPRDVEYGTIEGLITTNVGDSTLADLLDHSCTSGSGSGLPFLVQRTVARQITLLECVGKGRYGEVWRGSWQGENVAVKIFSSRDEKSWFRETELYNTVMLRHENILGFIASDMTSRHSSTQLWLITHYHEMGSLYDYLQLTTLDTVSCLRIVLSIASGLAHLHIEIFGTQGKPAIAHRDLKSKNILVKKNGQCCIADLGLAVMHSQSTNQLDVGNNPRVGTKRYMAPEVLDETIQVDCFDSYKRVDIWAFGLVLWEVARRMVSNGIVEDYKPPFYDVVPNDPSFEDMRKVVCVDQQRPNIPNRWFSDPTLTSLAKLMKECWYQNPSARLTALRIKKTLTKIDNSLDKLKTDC

In the case of `Cc1cc([C@@H](C)Nc2ccccc2C(=O)O)c2nc(N3CCOCC3)cc(=O)n2c1`, the kinase still bound, per cent of control [1] is reported as 100%, the kinase still bound, per cent of control (ACVR1 (human)) is reported as 100% and the kinase still bound, per cent of control (CDK19 (human)) is reported as 100%. It also gave a kinase still bound, per cent of control (CDK7 (human)) of 90%, a kinase still bound, per cent of control (CSNK1E (human)) of 92% and a kinase still bound, per cent of control (CSNK2A1 (human)) of 66%. For the same molecule, the kinase still bound, per cent of control [2] was 100%, the kinase still bound, per cent of control (EIF2AK1 (human)) was 100% and the kinase still bound, per cent of control (EPHA1 (human)) was 100%. For the same molecule, the kinase still bound, per cent of control (EPHA8 (human)) was 82%, the kinase still bound, per cent of control (FGR (human)) was 76% and the kinase still bound, per cent of control (FYN (human)) was 41%. For the same molecule, the kinase still bound, per cent of control (GSK3B (human)) was 100%, the kinase still bound, per cent of control [3] was 90% and the kinase still bound, per cent of control (MAP2K3 (human)) was 99%. For the same molecule, the kinase still bound, per cent of control (MAP3K1 (human)) was 100%, the kinase still bound, per cent of control (MAP3K3 (human)) was 77% and the kinase still bound, per cent of control (MAP3K5 (human)) was 100%. For the same molecule, the kinase still bound, per cent of control (MAPK12 (human)) was 82%, the kinase still bound, per cent of control (MAPK15 (human)) was 100% and the kinase still bound, per cent of control (MAPK9 (human)) was 69%. It also gave a kinase still bound, per cent of control (MET (human)) of 95%, a kinase still bound, per cent of control [4] of 93% and a kinase still bound, per cent of control (NEK11 (human)) of 68%. The kinase still bound, per cent of control (NTRK2 (human)) was 81%, the kinase still bound, per cent of control (PAK2 (human)) was 100% and the kinase still bound, per cent of control (PAK6 (human)) was 96%. It also gave a kinase still bound, per cent of control (PIP5K1A (human)) of 100%, a kinase still bound, per cent of control (PKN1 (human)) of 100% and a kinase still bound, per cent of control (PLK1 (human)) of 55%. The kinase still bound, per cent of control (PLK3 (human)) was 94%, the kinase still bound, per cent of control (PRKCD (human)) was 100% and the kinase still bound, per cent of control (PRKD3 (human)) was 85%. It also gave a kinase still bound, per cent of control [5] of 100%, a kinase still bound, per cent of control (RIPK1 (human)) of 100% and a kinase still bound, per cent of control (RPS6KA5 KD1 (human)) of 100%. The kinase still bound, per cent of control (SIK1 (human)) was 100%, the kinase still bound, per cent of control (STK10 (human)) was 71% and the kinase still bound, per cent of control (STK16 (human)) was 99%. It also gave a kinase still bound, per cent of control (STK3 (human)) of 97%, a kinase still bound, per cent of control (TEK (human)) of 94% and a kinase still bound, per cent of control (VRK2 (human)) of 83%.
